Laboratory results: ChEMBL document CHEMBL4665678, “Overview of AKR1C3: Inhibitor Achievements and Disease Insights” (J Med Chem, 2020)
Substitutions are numbered along the chain they refer to. Values belong to the compound of their own block, whether it stands above or below them.

Key:
[1] = biological target: T1, Aldo-keto reductase family 1 member C3 (Homo sapiens, UniProt P42330); experiment: Inhibition of human AKR1C3 expressed in Escherichia coli incubated for 30 mins in presence of NADPH regeneration system by UHPLC method based Lineweaver-Burk double-reciprocal plot analysis
T1 sequence (P42330 whole entry): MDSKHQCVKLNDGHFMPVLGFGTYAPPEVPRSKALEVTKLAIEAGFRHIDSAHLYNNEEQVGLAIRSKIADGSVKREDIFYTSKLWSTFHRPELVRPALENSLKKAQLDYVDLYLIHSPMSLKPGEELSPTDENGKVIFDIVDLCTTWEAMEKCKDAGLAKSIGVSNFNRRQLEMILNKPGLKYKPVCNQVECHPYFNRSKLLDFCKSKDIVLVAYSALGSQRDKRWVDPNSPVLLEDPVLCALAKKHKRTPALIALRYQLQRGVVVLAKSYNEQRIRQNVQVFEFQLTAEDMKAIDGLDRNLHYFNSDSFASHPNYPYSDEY

[2] = biological target: T1, Aldo-keto reductase family 1 member C3; experiment: Inhibition of AKR1C3 (unknown origin) expressed in human HCT116 cells incubated for 2 to 4 hrs by UHPLC analysis; type: cell-based, HCT-116
[3] = biological target: T1, Aldo-keto reductase family 1 member C3; experiment: Inhibition of human AKR1C3 expressed in Escherichia coli incubated for 30 mins in presence of NADPH regeneration system by UHPLC analysis
[4] = biological target: T2, Aldo-keto reductase family 1 member C1 (Homo sapiens, UniProt Q04828); experiment: Inhibition of NH2-terminal His6-tagged recombinant human AKR1C1 expressed in Escherichia coli BL21(DE3) cells using assessed as phenanthrenequinone reduction
T2 sequence (Q04828 whole entry): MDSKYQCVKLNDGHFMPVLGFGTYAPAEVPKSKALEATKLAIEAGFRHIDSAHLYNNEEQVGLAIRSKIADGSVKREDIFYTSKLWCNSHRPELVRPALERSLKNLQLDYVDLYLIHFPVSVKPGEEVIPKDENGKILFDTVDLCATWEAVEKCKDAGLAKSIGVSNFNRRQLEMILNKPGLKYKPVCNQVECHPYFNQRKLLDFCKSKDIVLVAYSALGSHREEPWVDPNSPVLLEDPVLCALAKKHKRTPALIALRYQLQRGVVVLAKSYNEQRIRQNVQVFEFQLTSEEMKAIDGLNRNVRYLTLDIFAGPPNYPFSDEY

[5] = biological target: T3, Aldo-keto reductase family 1 member C2 (Homo sapiens, UniProt P52895); experiment: Inhibition NH2-terminal His6-tagged recombinant human AKR1C2 expressed in Escherichia coli BL21(DE3) cells using assessed as phenanthrenequinone reduction
T3 sequence (P52895 whole entry): T2 sequence (Q04828 whole entry) with T38V, R47H, L54V, C87S, V151M, R170H, Q172L

[6] = biological target: T4, Aldo-keto reductase family 1 member C3 (Homo sapiens) (UniProt P42330); experiment: Inhibition NH2-terminal His6-tagged recombinant human AKR1C3 expressed in Escherichia coli BL21(DE3) cells using assessed as phenanthrenequinone reduction
T4 sequence (whole entry): T1 sequence (P42330 whole entry)

[7] = biological target: T1, Aldo-keto reductase family 1 member C3; experiment: Inhibition of N-terminal His-tagged human AKR1C3 (1 to 323 residues) expressed in Escherichia coli using 4-adione as substrate in presence of NADPH by fluorescence method
[8] = biological target: T1, Aldo-keto reductase family 1 member C3; experiment: Inhibition of AKR1C3 (unknown origin) using 9,10-phenanthrenequinone as substrate
[9] = biological target: T5, Prostaglandin G/H synthase 2 (Homo sapiens, UniProt P35354); experiment: Inhibition of human COX-2 expressed in Sf9 insect cells using [14C] arachidonic acid as substrate preincubated for 20 mins followed by substrate addition measured after 30 sec by thin layer chromatography assay
T5 sequence (P35354 whole entry): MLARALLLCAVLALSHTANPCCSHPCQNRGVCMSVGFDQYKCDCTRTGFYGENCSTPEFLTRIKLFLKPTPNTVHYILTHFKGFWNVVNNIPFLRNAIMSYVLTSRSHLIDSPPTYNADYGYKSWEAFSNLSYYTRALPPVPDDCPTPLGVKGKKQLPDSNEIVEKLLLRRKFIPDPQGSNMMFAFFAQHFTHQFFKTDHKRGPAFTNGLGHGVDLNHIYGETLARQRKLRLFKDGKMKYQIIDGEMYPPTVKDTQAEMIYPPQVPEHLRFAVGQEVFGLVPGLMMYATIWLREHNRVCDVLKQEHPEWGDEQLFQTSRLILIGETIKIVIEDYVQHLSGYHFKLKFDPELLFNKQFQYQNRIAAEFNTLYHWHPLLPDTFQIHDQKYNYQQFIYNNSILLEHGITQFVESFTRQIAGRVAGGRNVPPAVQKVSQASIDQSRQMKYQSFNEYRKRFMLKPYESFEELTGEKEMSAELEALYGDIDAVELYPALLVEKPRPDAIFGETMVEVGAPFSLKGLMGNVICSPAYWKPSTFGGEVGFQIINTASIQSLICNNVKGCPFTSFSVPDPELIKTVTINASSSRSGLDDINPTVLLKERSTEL

[10] = biological target: T1, Aldo-keto reductase family 1 member C3; experiment: Inhibition of AKR1C3 (unknown origin) using 4-androstene-3,17-dione as substrate
[11] = biological target: T6, AKR1C1 (Homo sapiens, UniProt Q04828); experiment: Inhibition of AKR1C1 (unknown origin) using 9,10-phenanthrenequinone as substrate at 60 uM relative to control; settings: probe 9,10-phenanthrenequinone
T6 sequence (Q04828 whole entry): T2 sequence (Q04828 whole entry)

[12] = biological target: T7, Prostaglandin G/H synthase 1 (Ovis aries, UniProt P05979); experiment: Inhibition of ovine COX-1 using [14C] arachidonic acid as substrate preincubated for 20 mins followed by substrate addition measured after 30 sec by thin layer chromatography assay
T7 sequence (P05979 whole entry): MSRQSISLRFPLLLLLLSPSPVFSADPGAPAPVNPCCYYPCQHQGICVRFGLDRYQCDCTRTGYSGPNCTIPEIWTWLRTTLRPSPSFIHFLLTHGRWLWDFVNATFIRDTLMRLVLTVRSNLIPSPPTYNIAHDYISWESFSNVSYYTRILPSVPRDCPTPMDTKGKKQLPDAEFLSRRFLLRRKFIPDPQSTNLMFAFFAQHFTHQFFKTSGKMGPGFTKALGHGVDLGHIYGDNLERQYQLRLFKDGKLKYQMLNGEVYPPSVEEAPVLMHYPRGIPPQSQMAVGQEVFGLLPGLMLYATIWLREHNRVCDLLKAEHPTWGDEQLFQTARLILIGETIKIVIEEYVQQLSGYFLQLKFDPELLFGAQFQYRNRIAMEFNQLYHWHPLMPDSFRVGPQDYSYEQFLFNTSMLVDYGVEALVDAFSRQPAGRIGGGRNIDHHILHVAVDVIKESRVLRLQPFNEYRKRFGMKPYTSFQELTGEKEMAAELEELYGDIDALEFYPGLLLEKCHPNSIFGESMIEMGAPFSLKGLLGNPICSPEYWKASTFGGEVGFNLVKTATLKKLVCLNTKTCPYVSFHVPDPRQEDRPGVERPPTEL

[13] = biological target: T8, AKR1C2 (Homo sapiens, UniProt P52895); experiment: Inhibition of AKR1C2 (unknown origin) using 9,10-phenanthrenequinone as substrate at 60 uM relative to control; settings: probe 9,10-phenanthrenequinone
T8 sequence (P52895 whole entry): T2 sequence (Q04828 whole entry) with T38V, R47H, L54V, C87S, V151M, R170H, Q172L

[14] = biological target: T1, Aldo-keto reductase family 1 member C3; experiment: Inhibition of human AKR1C3 expressed in Escherichia coli preincubated for 15 mins followed by Adion addition and measured after 30 mins by HPLC analysis
[15] = biological target: T1, Aldo-keto reductase family 1 member C3; experiment: Inhibition of AKR1C3 (unknown origin) expressed in human HCT116 cells incubated for 3 to 6 hrs by UHPLC analysis; type: cell-based, HCT-116

SMILES: Nc1cc(C(F)(F)F)c(-c2cc(N3CCOCC3)nc(N3CCOCC3)n2)cn1 [BUPARLISIB]
Ki [1]: 14 µM
IC50 [2]: 7.9 µM
IC50 [3]: 9.5 µM

SMILES: COc1ccc2cc3[n+](cc2c1OC)CCc1cc2c(cc1-3)OCO2 [BERBERINE]
IC50 [7]: 4.08 µM

SMILES: COc1ccc2c(c1)c(CCNC(C)=O)cn2C(=O)c1ccc(Cl)cc1
IC50 [8]: 7.8 µM
IC50 [9]: > 60 µM
IC50 [10]: 11.4 µM
inhibition at 60 µM [11]: < 10%
IC50 [12]: > 60 µM
inhibition at 60 µM [13]: < 10%

SMILES: CO[C@@H]1C=C[C@@]23c4cc5c(cc4CO[C@]2(O)CN(C)[C@H]3C1)OCO5 [TAZETTINE]
IC50 [14]: 15.8 µM

Next, values leading:

Kis [4]: 162 uM/L
Kis [5]: 49 uM/L
Kis [6]: 153 µM/L
SMILES: CC/C=C\CC1C(=O)CCC1CC(=O)OC (stereo unspecified) [METHYL JASMONATE]

IC50 [15]: 0.23 µM
Ki ([3]; read-out: Ki(app)): 0.07 µM
SMILES: CCc1cnn2c(NCc3ccc[n+]([O-])c3)cc(N3CCCC[C@H]3CCO)nc12 [DINACICLIB]
